From US20060094059A1, “Methods for identifying new drug leads and new therapeutic uses for known drugs” (Odyssey Thera, Inc., priority 2004, published 2006)
Where two headings read alike, the source gives them in different places.

Assays:
[1] = system: pancreatic carcinoma (MIA PaCa-2) cells; assay: MTT proliferation assay, pancreatic; format: cell-based, Human; conditions: Tumor Cell Pancreatic (MIA PaCa-2), 120 hours, read-out: Anti-proliferative IC-50
Procedure: (§1) Cells were maintained in various media as follows: A549, LoVo and PC-3 (Ham's F12K medium with 2 mM L-glutamine and 1.5 g/L sodium bicarbonate), MIA PaCa-2 (Dulbecco's modified Eagle's medium with 4 mM L-glutamine and 4.5 g/L glucose), U87-MG (MEM+Earle's BSS). Medium for each cell line was supplemented with 10% FBS and […] Penecillin/Streptomycin. All cells were grown in incubators set at 37° C., 5% CO2. Thiazolyl Blue Tetrazolium Bromide (MTT) based proliferation assays were performed to assess the anti-proliferative activities of the compounds on these cells. Cells were seeded in 96 well plates at a density of 750 cells/well 24 hours prior to compound treatment. The cells were incubated with varying concentrations of compounds for 120 hours. […] Drug treatment was performed in 5 replicate wells. Background absorbance was established by wells containing medium but no cells. Vehicle (DMSO) only was used as control. MTT (Sigma-Aldrich, St. Louis, Mo.) was added to each well at a final concentration of 0.5 mg/ml. Following a 2 hour incubation at 37° C., medium in the wells was replaced with 0.15 ml DMSO. The plates were agitated for 15 min using a microtiter plate shaker.

[2] = system: glioblastoma (U-87 MG) cells; assay: MTT proliferation assay, glioblastoma; format: cell-based; conditions: Homo sapiens, Tumor Cell Glioblastoma (U-87 MG), 120 hours, read-out: Anti-proliferative IC-50
Procedure: as §1

[3] = system: non-small cell lung carcinoma (A549) cells; assay: MTT proliferation assay, NSCLC; format: cell-based, Human; conditions: Tumor Cell NSCLC (A549), 120 hours, read-out: Anti-proliferative IC-50
Procedure: as §1

CDC42:PAK4 complexes = assay: Protein-fragment complementation assay CDC42:PAK4; format: cell-based, human; conditions: hit in CDC42/PAK4 assay; drugs screened at 10 micromolar
From the text: (§2) To construct dynamic assays for protein-protein complexes, we used a protein-fragment complementation assay strategy (PCAs) in intact human cells. (A variety of other suitable assays, and reporter options, are described in detail below.) The principle of PCA is that complementary polypeptide fragments (F[1] and F[2]) of a reporter protein or enzyme will fold into an active form only if fused to two proteins which interact and bring the complementary fragments of the reporter protein into proximity. Reconstitution of the fragments of the reporter protein generates a fluorescent signal that can be quantified in intact cells, and the amount of the signal is proportional to the amount of the protein-protein complex used in constructing the assay. Given a suitable reporter type, the subcellular location of the complex can also be measured.
(§3) Reporter fragments for PCA were generated by oligonucleotide synthesis (Blue Heron Biotechnology, Bothell, Wash.), starting with the sequence of yellow fluorescent protein (YFP). First, oligonucleotides coding for polypeptide fragments YFP[1]and YFP[2] […] Next, PCR mutagenesis was used to generate the mutant fragments IFP[1] and IFP[2]. The IFP[1] fragment corresponds to YFP[1]-(F46L, F64L, M153T) and the IFP[2] fragment corresponds to YFP[2]-(V163A, S175G). […] The YFP[1], YFP[2], IFP[1] and IFP[2] fragments were amplified by PCR to incorporate restriction sites and a linker sequence, described below, in configurations that would allow fusion of a gene of interest to either the 5′- or 3′-end of each reporter fragment. The reporter-linker fragment cassettes were subcloned into a mammalian expression vector (pcDNA3.1Z, Invitrogen) that had been modified to incorporate the replication origin (oriP) of the Epstein Barr virus (EBV). […] Additionally, these vectors still retain the SV40 origin, allowing for episomal expression in cell lines expressing the SV40 large T antigen (e.g. HEK293T, Jurkat or COS).
(§4) PCA fusion constructs were prepared for a proteins known to participate in cellular pathways that have been described in the scientific literature as being linked to cancer. The selection of protein-protein complexes used, and the rationale for their use, is provided in Table 1 and the gene identifiers for the cDNAs used in assay construction are provided in Table 2. The full coding sequence for each gene of interest was amplified by PCR from a sequence-verified full-length cDNA. Resulting PCR products were column purified (Centricon), digested with appropriate restriction enzymes to allow directional cloning, and fused in-frame to either the 5′ or 3′-end of YFP[1], YFP[2], IFP[1] or IFP[2] through a linker encoding a flexible 10 amino acid peptide (Gly.Gly.Gly.Gly.Ser)2. […] Recombinants in the host strains DH5-alpha (Invitrogen, Carlsbad, Calif.) or XL1 Blue MR (Stratagene, La Jolla, Calif.) were screened by colony PCR, and clones containing inserts of the correct size were subjected to end sequencing to confirm the presence of the gene of interest and in-frame fusion to the appropriate reporter fragment. A subset of fusion constructs were selected for full-insert sequencing by primer walking. DNAs were isolated using Qiagen MaxiPrep kits (Qiagen, Chatsworth, Calif.). PCR was used to assess the integrity of each fusion construct, by combining the appropriate gene-specific primer with a reporter-specific primer to confirm that the correct gene-fusion was present and of the correct size with no internal deletions.
(§5) HEK293 cells were maintained in MEM alpha medium (Invitrogen) supplemented with 10% FBS (Gemini Bio-Products), 1% penicillin, and 1% streptomycin, and grown in a 37° C. incubator equilibrated to 5% CO2. […] Up to 100 ng of the complementary YFP or IFP-fragment fusion vectors were co-transfected using Fugene 6 (Roche) according to the manufacturer's protocol.

PAK4:Cofilin = assay: Protein-fragment complementation assay PAK4:Cofilin; format: cell-based, human; conditions: hit in PAK4/CFL assay; drugs screened at 10 micromolar
From the text: as §2, §3, §4, §5

[4] = system: prostate adenocarcinoma (PC-3) cells; assay: MTT proliferation assay, prostate; format: cell-based, Human; conditions: Tumor Cell Prostate (PC-3), MTT, 120 hours, read-out: Anti-proliferative IC-50
Procedure: (§6) We used these methods to mine the known pharmacopeia for drugs with previously-unsuspected activity against cancer-related pathways. […] Hits from our cell-based screens were tested for antiproliferative activity in up to 5 different human tumor cell lines, as follows. First, drugs with significant activity in the cellular screen(s) were tested for their ability to block proliferation of a human tumor cell line (PC-3) at an initial concentration of 10 micromolar. For drugs with antiproliferative activity in PC-3 cells, dose-response curves to determine the IC50 for antiproliferative activity and additional tumor cell lines were tested to determine the breadth of activity. Methods for assessing the antiproliferative activity of the cell-based drug ‘hits’ are described below.
as §1

[5] = system: colon adenocarcinoma (LoVo) cells; assay: MTT proliferation assay, colon; format: cell-based, Human; conditions: Tumor Cell Colon (LoVo), 120 hours, read-out: Anti-proliferative IC-50
Procedure: as §1

Chk1:CDC25C = assay: Protein-fragment complementation assay Chk1:CDC25C; format: cell-based, human; conditions: hit in CDC25C/Chk1 assay (with or without CPT not stated); drugs screened at 10 micromolar
From the text: as §2
(§7) Reporter fragments for PCA were generated by oligonucleotide synthesis (Blue Heron Biotechnology, Bothell, Wash.), starting with the sequence of yellow fluorescent protein (YFP). First, oligonucleotides coding for polypeptide fragments YFP[1]and YFP[2] […] Next, PCR mutagenesis was used to generate the mutant fragments IFP[1] and IFP[2]. The IFP[1] fragment corresponds to YFP[1]-(F46L, F64L, M153T) and the IFP[2] fragment corresponds to YFP[2]-(V163A, S175G). […]

EGFR:Grb2 = assay: Cell-based assay EGFR:Grb2; set-up: species or system human; conditions: hit in EGFR/Grb2 assay; drugs screened at 10 micromolar
From the text: as §2, §7

Wee1:Cdc2 = assay: Protein-fragment complementation assay Wee1:Cdc2; format: cell-based, human; conditions: hit in Wee1/Cdc2 assay; drugs screened at 10 micromolar
From the text: as §2, §7

HSP90:Eef2k = assay: Protein-fragment complementation assay Hsp90:Eef2k; format: cell-based, human; conditions: hit in HSP90/Eef2k assay; drugs screened at 10 micromolar
From the text: as §2
as §3, with “COS). […]” for “COS).”

human tumor cell lines = assay: MTT proliferation assay and phase contrast images, cell line not given (FIGS. 5-10); format: cell-based; conditions: treated cells vs. DMSO control, cell line not named
Procedure: as §6
Cells were maintained in various media as follows: A549, LoVo and PC-3 (Ham's F12K medium with 2 mM L-glutamine and 1.5 g/L sodium bicarbonate), MIA PaCa-2 (Dulbecco's modified Eagle's medium with 4 mM L-glutamine and 4.5 g/L glucose), U87-MG (MEM+Earle's BSS). Medium for each cell line was supplemented with 10% FBS and […] Penecillin/Streptomycin. All cells were grown in incubators set at 37° C., 5% CO2. Thiazolyl Blue Tetrazolium Bromide (MTT) based proliferation assays were performed to assess the anti-proliferative activities of the compounds on these cells. Cells were seeded in 96 well plates at a density of 750 cells/well 24 hours prior to compound treatment. The cells were incubated with varying concentrations of compounds for 120 hours. Compound concentrations range from 0.03 to 100 microM (half log increments) except for alpha-Tomatine (0.001-100 microM, half log increments), Neriifolin (0.0002-100 microM) and Peruvoside (0.01-100 microM). Drug treatment was performed in 5 replicate wells. Background absorbance was established by wells containing medium but no cells. Vehicle (DMSO) only was used as control. MTT (Sigma-Aldrich, St. Louis, Mo.) was added to each well at a final concentration of 0.5 mg/ml. Following a 2 hour incubation at 37° C., medium in the wells was replaced with 0.15 ml DMSO. The plates were agitated for 15 min using a microtiter plate shaker. […] Mean absorbance values were calculated from 5 replicate wells of each drug treatment following subtraction of background absorbance from blank samples and plotted as a percentage of control.

CDC25C:Cdc2 = assay: Protein-fragment complementation assay CDC25C:Cdc2; format: cell-based, human; conditions: hit in CDC2/CDC25C assay; drugs screened at 10 micromolar
From the text: as §2, §7

BAD:BID = assay: Protein-fragment complementation assay BAD:BID; format: cell-based, human; conditions: hit in BAD/BID assay; drugs screened at 10 micromolar
From the text: as §2, §7

MAX:MYC = assay: Protein-fragment complementation assay MAX:MYC; format: cell-based, human; conditions: hit in MYC/MAX assay; drugs screened at 10 micromolar
From the text: as §2, §7

Cofilin:LIMK2 = assay: Protein-fragment complementation assay Cofilin:LIMK2; format: cell-based, human; conditions: hit in Cofilin/LIMK2 assay; drugs screened at 10 micromolar
From the text: as §2, §7

SMILES | IC50 ([1]; Homo sapiens) [nM] | IC50 [2] [nM] | IC50 ([3]; Homo sapiens) [nM] | IC50 ([4]; Homo sapiens) [nM] | IC50 ([5]; Homo sapiens) [nM] | Assay activity (CDC42:PAK4 complexes) | Assay activity (PAK4:Cofilin) | further results
CCCCCCCCNC(C)C(O)c1ccc(SC(C)C)cc1 (centres unmarked) [Suloctidil] | 1930 | 1120 | 2230 | 1850 | 1130 | CDC42/PAK4 | PAK4/CFL, | –
CO[C@H]1[C@H](O)[C@H](O[C@H]2CC[C@@]3(C=O)[C@H](CC[C@@H]4[C@@H]3CC[C@]3(C)[C@@H](C5=CC(=O)OC5)CC[C@]43O)C2)O[C@@H](C)[C@@H]1O [Peruvoside] | 3 | 2 | 4 | 5 | 9 | – | – | Assay activity (Wee1:Cdc2): Wee1/Cdc2
CN[C@H]1CC[C@@H](c2ccc(Cl)c(Cl)c2)c2ccccc21 [Sertraline] | – | – | – | – | – | – | – | Assay activity (HSP90:Eef2k): Eef2K/hsp90,; Assay activity (EGFR:Grb2): EGFR/Grb2,; cell count (phase contrast images) (human tumor cell lines): reduced the cell count; Assay activity (CDC25C:Cdc2): CDC2/CDC25C,; Assay activity (BAD:BID): BAD/BID,; Assay activity (MAX:MYC): MAX/MYC
CO[C@H]1[C@H](O)[C@H](O[C@H]2CC[C@@]3(C)[C@H](CC[C@@H]4[C@@H]3CC[C@]3(C)[C@@H](C5=CC(=O)OC5)CC[C@]43O)C2)O[C@@H](C)[C@@H]1O [Neri$$olin, Neriifolin] | – | – | – | – | – | CDC42/PAK4 | PAK4/CFL, | IC50 [1]: 4 nM; IC50 [3]: 5 nM; IC50 [4]: 11 nM; IC50 [5]: 18 nM
Fc1ccc(C(c2ccc(F)cc2)N2CCN(C/C=C/c3ccccc3)CC2)cc1 [Flunarizine] | – | – | – | – | – | CDC42/PAK4 | PAK4/CFL, | –

The next lines start with results.

IC50 ([1]; Homo sapiens) [nM] | IC50 [2] [nM] | IC50 ([3]; Homo sapiens) [nM] | IC50 ([4]; Homo sapiens) [nM] | IC50 ([5]; Homo sapiens) [nM] | SMILES | Assay activity (CDC42:PAK4 complexes) | Assay activity (PAK4:Cofilin) | further results
377 | 860 | 230 | 630 | 1400 | CC1(C)CCC2=C(O1)c1ccccc1C(=O)C2=O [beta-Lapachone] | – | – | Assay activity (Chk1:CDC25C): CDC25C/Chk1; Assay activity (EGFR:Grb2): EGFR/Grb2,
8800 | 24600 | 24300 | 7680 | 25800 | O=C(CCCN1CC=C(n2c(=O)[nH]c3ccccc32)CC1)c1ccc(F)cc1 [Droperidol] | – | PAK4/CFL | –
– | 4600 | – | – | – | CC(C)c1c(C(=O)Nc2ccccc2)c(-c2ccccc2)c(-c2ccc(F)cc2)n1CC[C@@H](O)C[C@@H](O)CC(=O)O [Atorvastatin] | – | CFL1/PAK4 | cell count (phase contrast images) (human tumor cell lines): decreased the cell count; Assay activity (Cofilin:LIMK2): CFL1/LIMK2,
